Measurements as given in ChEMBL document CHEMBL5096241, “Discovery of 3-Aminopyrazole Derivatives as New Potent and Orally Bioavailable AXL Inhibitors” (J Med Chem, 2022).
Calls of active or inactive are those of the source. The calls are words filed in the database; no cut-off is given here.

Legend:
[1] = Oral bioavailability in Sprague-Dawley rat at 25 mg/kg measured for 96 hrs by LC-MS analysis; format: ADME, organism-based; details: in vivo
4T1 [2] = assay: Antitumor activity against metastatic mouse 4T1 cells implanted in BALB/c mouse assessed as reduction in size of liver metastases administered orally once daily for 14 consecutive days by H & E staining based microscopic analysis; format: functional; details: dose 50-100 mg/kg, route po, time 14.0 day, DDE = dose-dependent effect
[3] = Inhibition of TGF-beta induced cell invasion in human MDA-MB-231 cells at 0.11 uM incubated for 24 hrs by crystal violet staining based transwell assay relative to control; format: functional
4T1 [4] = assay: Antitumor activity against metastatic mouse 4T1 cells implanted in BALB/c mouse assessed as reduction in number of liver metastases at 100 mg/kg, po qd administered for 14 consecutive days by H & E staining based microscopic analysis (reference value: 24.7 +/- 6.7); format: functional; details: time 14 day
[5] = molecular target: Proto-oncogene tyrosine-protein kinase receptor Ret (Homo sapiens, UniProt P07949); assay: Binding affinity to RET (unknown origin) assessed as dissociation constant by competition binding assay
Chain of Proto-oncogene tyrosine-protein kinase receptor Ret (P07949 whole entry): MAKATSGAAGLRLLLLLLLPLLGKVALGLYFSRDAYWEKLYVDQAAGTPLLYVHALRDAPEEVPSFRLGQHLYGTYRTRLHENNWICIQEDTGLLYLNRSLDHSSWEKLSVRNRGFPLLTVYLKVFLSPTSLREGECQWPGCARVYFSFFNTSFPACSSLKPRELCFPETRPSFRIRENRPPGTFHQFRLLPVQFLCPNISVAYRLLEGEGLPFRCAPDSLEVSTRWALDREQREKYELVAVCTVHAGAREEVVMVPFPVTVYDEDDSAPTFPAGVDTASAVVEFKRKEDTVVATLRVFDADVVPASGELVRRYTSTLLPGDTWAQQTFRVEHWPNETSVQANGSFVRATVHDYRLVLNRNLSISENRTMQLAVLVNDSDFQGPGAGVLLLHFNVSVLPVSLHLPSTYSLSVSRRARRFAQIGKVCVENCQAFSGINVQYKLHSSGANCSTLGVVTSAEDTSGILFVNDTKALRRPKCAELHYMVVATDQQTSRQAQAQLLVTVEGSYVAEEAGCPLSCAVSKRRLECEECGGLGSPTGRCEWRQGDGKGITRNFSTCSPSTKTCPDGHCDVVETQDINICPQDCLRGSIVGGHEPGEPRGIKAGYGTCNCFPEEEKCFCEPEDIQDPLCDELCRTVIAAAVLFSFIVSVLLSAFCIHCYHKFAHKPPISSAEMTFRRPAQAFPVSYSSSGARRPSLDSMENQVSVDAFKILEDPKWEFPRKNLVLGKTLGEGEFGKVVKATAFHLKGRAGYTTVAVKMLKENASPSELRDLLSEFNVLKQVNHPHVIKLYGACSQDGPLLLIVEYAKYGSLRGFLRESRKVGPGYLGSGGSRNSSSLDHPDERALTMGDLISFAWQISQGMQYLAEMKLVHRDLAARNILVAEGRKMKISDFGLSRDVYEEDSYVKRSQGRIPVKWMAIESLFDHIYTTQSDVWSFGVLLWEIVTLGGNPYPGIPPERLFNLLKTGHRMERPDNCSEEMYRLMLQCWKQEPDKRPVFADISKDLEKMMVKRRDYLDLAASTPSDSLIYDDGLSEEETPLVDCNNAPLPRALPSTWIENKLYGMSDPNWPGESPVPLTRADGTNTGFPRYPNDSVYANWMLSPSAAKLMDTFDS

Ephrin type-B receptor 6 = Ephrin type-B receptor 6 (Homo sapiens, UniProt O15197); assay: Binding affinity to EPHB6 (unknown origin) assessed as dissociation constant by competition binding assay
[6] = Observed AUCinfinity in Sprague-Dawley rat at 25 mg/kg, po measured for 96 hrs by LC-MS analysis; format: ADME, organism-based; set-up: dose 25 mg/kg, time 96 hrs, route po; details: in vivo
[7] = molecular target: Receptor-type tyrosine-protein kinase FLT3 (Homo sapiens, UniProt P36888); assay: Binding affinity to FLT3 (unknown origin) assessed as dissociation constant by competition binding assay
[8] = Observed MRTinfinity in Sprague-Dawley rat at 25 mg/kg, po measured for 96 hrs by LC-MS analysis; format: ADME, organism-based; details: in vivo
[9] = molecular target: T1, Macrophage colony-stimulating factor 1 receptor (Homo sapiens, UniProt P07333); assay: Binding affinity to CSF1R (unknown origin) assessed as dissociation constant by competition binding assay
T1 sequence (P07333 whole entry, the tested form may be a part): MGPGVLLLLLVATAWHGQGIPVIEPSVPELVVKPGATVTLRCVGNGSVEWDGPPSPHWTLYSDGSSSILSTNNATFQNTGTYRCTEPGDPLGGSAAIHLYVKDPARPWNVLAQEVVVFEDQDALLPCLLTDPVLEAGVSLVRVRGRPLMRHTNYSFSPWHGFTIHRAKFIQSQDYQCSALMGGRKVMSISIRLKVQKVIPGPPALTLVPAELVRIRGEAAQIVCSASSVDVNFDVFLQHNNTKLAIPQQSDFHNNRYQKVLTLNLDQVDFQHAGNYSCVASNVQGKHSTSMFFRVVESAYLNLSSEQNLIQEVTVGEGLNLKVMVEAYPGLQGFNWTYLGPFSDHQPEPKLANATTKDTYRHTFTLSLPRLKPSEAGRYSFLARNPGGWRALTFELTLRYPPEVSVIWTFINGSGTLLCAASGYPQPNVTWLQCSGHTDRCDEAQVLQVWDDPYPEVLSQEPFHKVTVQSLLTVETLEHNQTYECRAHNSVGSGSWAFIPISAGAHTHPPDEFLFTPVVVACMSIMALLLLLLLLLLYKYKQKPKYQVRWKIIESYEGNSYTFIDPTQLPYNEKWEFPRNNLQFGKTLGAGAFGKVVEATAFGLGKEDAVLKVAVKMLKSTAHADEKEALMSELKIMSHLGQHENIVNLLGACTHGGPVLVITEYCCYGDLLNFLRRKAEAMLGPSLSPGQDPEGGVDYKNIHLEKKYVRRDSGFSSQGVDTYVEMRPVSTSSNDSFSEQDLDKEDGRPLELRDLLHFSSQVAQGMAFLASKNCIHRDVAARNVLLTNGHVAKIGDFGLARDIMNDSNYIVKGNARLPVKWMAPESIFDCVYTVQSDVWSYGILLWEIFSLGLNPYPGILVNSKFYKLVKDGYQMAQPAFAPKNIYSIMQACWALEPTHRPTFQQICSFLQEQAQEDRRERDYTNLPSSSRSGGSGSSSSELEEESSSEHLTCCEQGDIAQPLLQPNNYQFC

[10] = molecular target: Epithelial discoidin domain-containing receptor 1 (Homo sapiens, UniProt Q08345); assay: Binding affinity to DDR1 (unknown origin) assessed as dissociation constant by competition binding assay
[11] = molecular target: Platelet-derived growth factor receptor beta (Homo sapiens, UniProt P09619); assay: Inhibition of PDGFRB (unknown origin)
[12] = molecular target: T1, Macrophage colony-stimulating factor 1 receptor; assay: Inhibition of CSF1R (unknown origin)
MDA-MB-231 = assay: Inhibition of TGF-beta induced epithelial mesenchymal transition process in human metastatic MDA-MB-231 cells assessed as restoration of E-cadherin expression incubated for 3 days by Western blot analysis; format: functional, cell-based; details: dose 0.11-3 µM, time 3.0 day, DDE = dose-dependent effect
[13] = AUClast in Sprague-Dawley rat at 5 mg/kg, iv measured for 96 hrs by LC-MS analysis; format: ADME, organism-based; set-up: time 96 hrs, dose 5 mg/kg, route iv; details: in vivo
[14] = molecular target: Vascular endothelial growth factor receptor 3 (Homo sapiens, UniProt P35916); assay: Binding affinity to FLT4 (unknown origin) assessed as dissociation constant by competition binding assay
[15] = molecular target: T2, Mast/stem cell growth factor receptor Kit (Homo sapiens, UniProt P10721); assay: Binding affinity to KIT (unknown origin) assessed as dissociation constant by competition binding assay
T2 sequence (P10721 whole entry): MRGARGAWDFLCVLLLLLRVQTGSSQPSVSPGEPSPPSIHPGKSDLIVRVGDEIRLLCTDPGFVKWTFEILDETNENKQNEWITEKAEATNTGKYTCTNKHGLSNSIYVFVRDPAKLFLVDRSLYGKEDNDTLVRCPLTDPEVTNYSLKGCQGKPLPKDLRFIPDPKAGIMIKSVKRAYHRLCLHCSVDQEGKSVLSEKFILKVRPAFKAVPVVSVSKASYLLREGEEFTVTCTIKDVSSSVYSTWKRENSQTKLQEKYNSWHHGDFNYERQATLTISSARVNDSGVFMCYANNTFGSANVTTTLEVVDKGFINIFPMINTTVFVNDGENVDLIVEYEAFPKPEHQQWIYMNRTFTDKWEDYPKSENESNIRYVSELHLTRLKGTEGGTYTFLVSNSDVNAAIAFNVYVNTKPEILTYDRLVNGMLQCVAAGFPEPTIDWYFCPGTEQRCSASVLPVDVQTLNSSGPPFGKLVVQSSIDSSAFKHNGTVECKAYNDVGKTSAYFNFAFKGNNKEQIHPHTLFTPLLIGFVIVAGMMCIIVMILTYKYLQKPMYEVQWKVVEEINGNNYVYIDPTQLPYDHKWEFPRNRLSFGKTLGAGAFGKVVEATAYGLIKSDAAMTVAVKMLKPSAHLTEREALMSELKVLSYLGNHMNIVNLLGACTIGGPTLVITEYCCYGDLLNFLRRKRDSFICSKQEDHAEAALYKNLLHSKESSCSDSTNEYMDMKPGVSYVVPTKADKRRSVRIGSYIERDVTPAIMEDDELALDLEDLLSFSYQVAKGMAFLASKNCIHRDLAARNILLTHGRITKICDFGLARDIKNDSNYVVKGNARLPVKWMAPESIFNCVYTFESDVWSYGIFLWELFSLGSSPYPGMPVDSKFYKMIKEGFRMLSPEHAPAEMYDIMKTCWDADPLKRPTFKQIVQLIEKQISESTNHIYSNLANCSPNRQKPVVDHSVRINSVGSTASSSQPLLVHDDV

[16] = molecular target: Vascular endothelial growth factor receptor 1 (Homo sapiens, UniProt P17948); assay: Binding affinity to FLT1 (unknown origin) assessed as dissociation constant by competition binding assay
[17] = molecular target: Tyrosine-protein kinase Mer (Homo sapiens, UniProt Q12866); assay: Binding affinity to MERTK (unknown origin) assessed as dissociation constant by competition binding assay
Chain of Tyrosine-protein kinase Mer (Q12866 whole entry): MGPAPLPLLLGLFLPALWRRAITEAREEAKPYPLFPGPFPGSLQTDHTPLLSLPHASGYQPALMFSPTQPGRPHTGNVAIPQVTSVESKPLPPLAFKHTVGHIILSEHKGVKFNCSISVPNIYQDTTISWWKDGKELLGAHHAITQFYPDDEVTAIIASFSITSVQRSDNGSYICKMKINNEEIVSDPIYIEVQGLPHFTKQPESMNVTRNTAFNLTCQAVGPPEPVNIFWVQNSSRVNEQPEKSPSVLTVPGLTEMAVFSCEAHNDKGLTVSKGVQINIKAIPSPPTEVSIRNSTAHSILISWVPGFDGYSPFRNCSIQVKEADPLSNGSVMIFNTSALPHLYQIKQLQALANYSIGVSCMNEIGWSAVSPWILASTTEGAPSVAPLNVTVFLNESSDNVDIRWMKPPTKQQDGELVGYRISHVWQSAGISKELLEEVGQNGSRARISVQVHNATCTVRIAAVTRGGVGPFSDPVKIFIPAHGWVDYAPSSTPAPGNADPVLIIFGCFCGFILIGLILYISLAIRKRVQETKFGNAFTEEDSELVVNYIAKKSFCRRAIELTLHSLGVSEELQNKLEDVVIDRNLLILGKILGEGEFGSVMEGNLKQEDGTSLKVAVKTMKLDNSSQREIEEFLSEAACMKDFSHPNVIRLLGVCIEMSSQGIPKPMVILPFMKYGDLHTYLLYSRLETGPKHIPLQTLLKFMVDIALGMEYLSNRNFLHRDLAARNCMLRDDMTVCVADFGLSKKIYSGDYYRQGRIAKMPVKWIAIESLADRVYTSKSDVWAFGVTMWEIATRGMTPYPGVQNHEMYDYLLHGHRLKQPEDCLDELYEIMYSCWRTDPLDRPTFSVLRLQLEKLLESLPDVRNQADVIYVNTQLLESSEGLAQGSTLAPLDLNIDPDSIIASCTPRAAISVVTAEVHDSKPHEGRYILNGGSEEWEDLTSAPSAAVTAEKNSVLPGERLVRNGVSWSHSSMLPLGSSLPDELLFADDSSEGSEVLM

[18] = molecular target: Serine/threonine-protein kinase AKT (Homo sapiens) (UniProt P31751+Q9Y243+P31749); assay: Inhibition of AKT phosphorylation at S473 residue in human MDA-MB-231 cells measured after 6 hrs by Western blot analysis; format: cell-based; details: dose 0.8-500 nM, DDE = dose-dependent effect
[19] = Cmax in Sprague-Dawley rat at 25 mg/kg, po measured for 96 hrs by LC-MS analysis; format: ADME, organism-based; set-up: dose 25 mg/kg, time 96 hrs, route po; details: in vivo
[20] = Toxicity in BALB/c mouse implanted with mouse 4T1 cells assessed as body weight loss at 50 to 100 mg/kg, po qd administered for 14 consecutive days and measured every 2 days; format: organism-based; details: in vivo, 336 h, dose 50-100 mg/kg, time 14 day
[21] = molecular target: Macrophage-stimulating protein receptor (Homo sapiens, UniProt Q04912); assay: Binding affinity to […] (unknown origin) assessed as dissociation constant by competition binding assay
[22] = molecular target: Mitogen-activated protein kinase kinase kinase kinase 5 (Homo sapiens, UniProt Q9Y4K4); assay: Binding affinity to MAP4K5 (unknown origin) assessed as dissociation constant by competition binding assay
[23] = Inhibition of TGF-beta induced cell invasion in human MDA-MB-231 cells at 0.33 uM incubated for 24 hrs by crystal violet staining based transwell assay relative to control; format: functional
[24] = molecular target: T2, Mast/stem cell growth factor receptor Kit; assay: Inhibition of KIT (unknown origin)
4T1 [25] = assay: Antitumor activity against metastatic mouse 4T1 cells implanted in BALB/c mouse assessed as inhibition of liver micrometastasis at 50 to 100 mg/kg, po qd administered for 14 consecutive days by H & E staining based microscopic analysis; format: functional, organism-based; details: dose 50-100 mg/kg, time 14.0 day
[26] = Observed AUCinfinity in Sprague-Dawley rat at 5 mg/kg, iv measured for 96 hrs by LC-MS analysis; format: ADME, organism-based; set-up: dose 5 mg/kg, time 96 hrs, route iv; details: in vivo
[27] = Observed MRTinfinity in Sprague-Dawley rat at 5 mg/kg, iv measured for 96 hrs by LC-MS analysis; format: ADME, organism-based; details: in vivo
[28] = molecular target: Serine/threonine-protein kinase 10 (Homo sapiens, UniProt O94804); assay: Binding affinity to LOK (unknown origin) assessed as dissociation constant by competition binding assay
Chain of Serine/threonine-protein kinase 10 (O94804 whole entry): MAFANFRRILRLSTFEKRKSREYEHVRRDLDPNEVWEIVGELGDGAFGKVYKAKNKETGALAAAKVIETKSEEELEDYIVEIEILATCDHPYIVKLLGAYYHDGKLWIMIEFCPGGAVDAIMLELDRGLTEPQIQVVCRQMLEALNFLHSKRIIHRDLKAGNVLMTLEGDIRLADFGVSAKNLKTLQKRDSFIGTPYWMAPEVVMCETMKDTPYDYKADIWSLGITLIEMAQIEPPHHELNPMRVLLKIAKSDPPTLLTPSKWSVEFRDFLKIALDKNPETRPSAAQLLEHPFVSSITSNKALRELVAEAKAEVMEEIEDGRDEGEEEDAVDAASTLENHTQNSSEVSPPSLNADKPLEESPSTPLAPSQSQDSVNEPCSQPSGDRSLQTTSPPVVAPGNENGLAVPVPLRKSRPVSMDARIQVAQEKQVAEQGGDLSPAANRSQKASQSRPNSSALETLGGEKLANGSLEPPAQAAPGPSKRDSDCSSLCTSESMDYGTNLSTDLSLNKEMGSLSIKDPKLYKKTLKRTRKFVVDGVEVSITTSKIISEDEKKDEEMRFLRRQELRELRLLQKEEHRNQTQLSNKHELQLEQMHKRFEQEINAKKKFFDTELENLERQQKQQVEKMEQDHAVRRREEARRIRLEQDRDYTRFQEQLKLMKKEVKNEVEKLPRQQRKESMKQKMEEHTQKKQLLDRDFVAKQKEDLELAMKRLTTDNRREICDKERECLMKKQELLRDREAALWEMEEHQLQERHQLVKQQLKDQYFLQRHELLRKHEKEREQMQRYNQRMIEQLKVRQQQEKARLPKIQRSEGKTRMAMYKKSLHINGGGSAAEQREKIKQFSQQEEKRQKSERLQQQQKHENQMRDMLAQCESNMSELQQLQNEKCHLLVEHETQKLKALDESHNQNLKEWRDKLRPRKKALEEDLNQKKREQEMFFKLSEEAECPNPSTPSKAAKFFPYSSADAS

bioavailability [1]: 14.4%
Kd [5]: 600 nM
Kd (Ephrin type-B receptor 6): > 1000 nM
AUC(0-inf) [6]: 8630 ng·h/mL
Kd [7]: 2.5 nM
MRT inf [8]: 6.55 h
Kd [9]: 29 nM
Kd [10]: > 1000 nM
IC50 [11]: > 10000 nM
IC50 [12]: 26.7 nM
AUC(0-t) at 96 h [13]: 11700 ng·h/mL
Kd [14]: 19 nM
Kd [15]: 2.6 nM
Kd [16]: 14 nM
Kd [17]: 560 nM
inhibition [18]: Dde
Cmax [19]: 888 ng/mL
Kd [21]: > 1000 nM
Kd [22]: > 1000 nM
IC50 [24]: 151 nM
AUC(0-inf) [26]: 11700 ng·h/mL
MRT inf [27]: 1.82 h
Kd [28]: 880 nM
Compound: COc1cc2c(Oc3ccc(Nc4nn(C)cc4C(=O)NC4CCCCC4)cc3F)ccnc2cc1OCCCN1CCOCC1
Activity (4T1 [2]): Dde
inhibition at 0.11 µM [3]: 22.6%
Activity (4T1 [4]): 2.8
inhibition (MDA-MB-231): Dde
Activity [20]: Non-Toxic
inhibition at 0.33 µM [23]: 34.8%
inhibition (4T1 [25]): Active
